Common to all, as to type: cell-based
Test [1] has as its system Candida albicans 90028. Put plainly: In vitro antifungal assay (Example IX), microdilution broth, MIC. The settings on record: minimum inhibitory concentration (≥50% inhibition), 35° C., 40-48 h, RPMI1640. As to the method:
Measurement of antifungal activity: Antifungal activity of the compounds was evaluated in a microdilution broth assay as per Clinical and Laboratory Standard Institute methodology for yeast (for Candida and Cryptococcus) (1) and molds (for Aspergillus and Rhizomucor) (2). Candida albicans 90028, Aspergillus fumigatus MYA3626, Rhizomucor pusillus 46342 and Cryptococcus neoformans H99 strains were obtained from American Type Culture Collection (ATCC).
Preparation of Fungal Suspension. C. albicans 90028 and C. neoformans H99 strains were streaked from frozen stocks at −80° C. onto Sabouraud Dextrose Agar (SDA) plates. These were allowed to grow for 24 h (C. albicans) and 48 h (C. neoformans) at 35° C. before using them in the assay. 5-6 individual colonies were picked and diluted into sterile water to obtain a fungal suspension. The cell density of the suspension was determined and the culture diluted with RPMI1640 medium to obtain a fungal suspension of 2.5×10^3 cells/mL. The suspension was used in the MIC measurement as described below.
Preparation of Compound Stocks and Intermediate Dilutions: The compounds were weighed and DMSO was added to prepare a 10 mg/mL stock. The solutions were mixed by vortexing and sonication at 37° C. for 5-10 mins. The resulting solutions were sterile filtered using a PTFE filter, and aliquoted (12 μL or as needed) and stored at −20° C. Intermediate compound dilutions were prepared in sterile polypropylene tubes in 100% DMSO. The compound stock solution was first diluted in DMSO to obtain a concentration of […] to 0.19 μg/mL.
MIC/MEC Measurement: 99 μL 1 of the fungal suspension in RPMI1640 prepared as above was added to each well of a 96-well round bottom assay plate. 1 μL of the intermediate compound dilutions (200-0.19 μg/mL) were added to wells of the plate. This led to a 100-fold dilution of the intermediate dilutions resulting in a final compound concentration of 2-0.0019 μg/mL in the plate. 1 μL of DMSO was added to “No drug” control wells. The solutions were mixed by shaking on a plate shaker for 10 mins and plates incubated at 35° C. for 40-48 h (C. albicans, A. fumigatus, R. pusillus) and 72 h (Cryptococcus). […] This was validated by thorough mixing and reading at 600 nm on a microplate reader. The minimum concentration that led to shortening of hyphae as compared to hyphal growth in DMSO control wells was determined as the minimum effective concentration (MEC) for A. fumigatus and R. pusillus (as read for echinocandins). The use of the MIC and MEC endpoints against yeasts and molds, respectively has been described by Pfaller M A, Duncanson F, Messer S A, Moet G J, Jones R N, Castanheira M. Antimicrob Agents Chemother. 2011. 55(11):5155-8. In vitro activity of a novel broad-spectrum antifungal, E1210, tested against Aspergillus spp. determined by CLSI and EUCAST broth microdilution methods. Results are shown in Table 2, and the letters indicate the following ranges in μg/mL: […]
For orientation: Broth dilution looks for growth in wells or tubes with falling amounts of substance.

Test [2] has as its system Aspergillus fumigatus MYA3626. Put plainly: In vitro antifungal assay (Example IX), microdilution broth, MEC. The settings on record: minimum effective concentration (shortening of hyphae), 35° C., 40-48 h, RPMI1640. As to the method: (§1) Measurement of antifungal activity: […] Candida albicans 90028, Aspergillus fumigatus MYA3626, Rhizomucor pusillus 46342 and Cryptococcus neoformans […] strains were obtained from American Type Culture Collection (ATCC). […] (A. fumigatus) and 35° C. (R. pusillus). Water containing 1% Tween was directly added to the agar plate and gently agitated to wet and remove the Aspergillus conidia. For R. pusillus, water was added to the surface and gently massaged to wet and remove the spores. For both species, the conidia or spores and mycelial fragments were collected, followed by removal of mycelium, conidiophores and large clumps of conidia/spores. The resulting spore suspension was counted and diluted into RPMI1640 medium to adjust to a final suspension of 1-2×10^4 spores/mL. The suspension was used in the MEC measurement as described below. […] The compounds were weighed and DMSO was added to prepare a 10 mg/mL stock. The solutions were mixed by vortexing and sonication at 37° C. for 5-10 mins. The resulting solutions were sterile filtered using a PTFE filter, and aliquoted (12 μL or as needed) and stored at -20° C. Intermediate compound dilutions were prepared in sterile polypropylene tubes in 100% DMSO. […] This was validated by thorough mixing and reading at 600 nm on a microplate reader. The minimum concentration that led to shortening of hyphae as compared to hyphal growth in DMSO control wells was determined as the minimum effective concentration (MEC) for A. fumigatus and R. pusillus (as read for echinocandins). The use of the MIC and MEC endpoints against yeasts and molds, respectively has been described by Pfaller M A, Duncanson F, Messer S A, Moet G J, Jones […]. Antimicrob Agents Chemother. 2011. 55(11):5155-8. In vitro activity of a novel broad-spectrum antifungal, […], tested against Aspergillus spp. determined by CLSI and EUCAST broth microdilution methods. Results are shown in Table 2, and the letters indicate the following ranges in μg/mL: […]

Test [3] relates to Rhizomucor pusillus 46342. The description is as above. The conditions noted are these: minimum effective concentration (shortening of hyphae), 35° C., 40-48 h, RPMI1640. As for the experimental part: as §1

Converted amounts (≈) assume the structure as drawn. Structures can show the parent of a compound that is named as a salt. A value given as a limit tells only on which side of the number the result lay.

The term MIC denotes the lowest concentration found to suppress growth. One may read the minimal effective concentration as the smallest amount tested that counted as effective. A high value points to a need for much substance. For the molecule `c1ccc(Sc2ccc(Cn3cc(-c4cccnc4)cn3)cn2)cc1` [compound 66, 2-(phenylthio)-5-((4-(pyridin-3-yl)-1H-pyrazol-1-yl)methyl)pyridine], the MIC in test [1] was 0.1 to 1 µg/mL (≈ 0.29 to 2.9 µM). The minimal effective concentration in test [2] was 0.1 to 1 µg/mL; in test [3], over 1 µg/mL.

As for `Nc1ncccc1-c1cnn(Cc2ccc(Sc3ccccc3)nc2)c1` [compound 67, 3-(1-((6-(phenylthio)pyridin-3-yl)methyl)-1H-pyrazol-4-yl)pyridin-2-amine], the MIC in test [1] was 0.1 to 1 µg/mL (≈ 0.278 to 2.78 µM). The minimal effective concentration in test [2] was 0.1 to 1 µg/mL; in test [3] it was over 1 µg/mL.

With `Nc1ccc(-c2cnn(Cc3ccc(OCc4ccccc4)nc3)c2)cn1` [compound 68, 5-(1-((6-(benzyloxy)pyridin-3-yl)methyl)-1H-pyrazol-4-yl)pyridin-2-amine], in test [1], the MIC lay in the range of 0.1 to 1 µg/mL (≈ 0.28 to 2.8 µM). The minimal effective concentration in test [2] is 0.1 to 1 µg/mL; in test [3], over 1 µg/mL.

In test [1], `CC1=C(Oc2ccc(Cc3cc(-c4cccnc4N)on3)cn2)C(=O)C(C)O1` (stereo not drawn) [compound 71, 4-((5-((5-(2-aminopyridin-3-yl)isoxazol-3-yl)methyl)pyridin-2-yl)oxy)-2,5-dimethylfuran-3(2H)-one] registered an MIC of over 1 µg/mL. Also, the minimal effective concentration in test [2] and in test [3] was over 1 µg/mL throughout.

Take `N#Cc1ccc(COc2ccc(Cc3cc(-c4cccnc4N)on3)cn2)cc1` [compound 76, 4-(((5-((5-(2-aminopyridin-3-yl)isoxazol-3-yl)methyl)pyridin-2-yl)oxy)methyl)benzonitrile]: the minimal inhibitory concentration (MIC) in test [1] was over 1 µg/mL. In addition, the minimal effective concentration in test [2] and in test [3] was 0.1 to 1 µg/mL in each case.

In test [1], `Nc1ncccc1-c1cc(Cc2ccc(OCc3cccc(Cl)c3)nc2)no1` [compound 85, 3-(3-((6-((3-chlorobenzyl)oxy)pyridin-3-yl)methyl)isoxazol-5-yl)pyridin-2-amine] gave an MIC of 0.01 to 0.1 µg/mL (≈ 0.0255 to 0.255 µM). In addition, the figures for the minimal effective concentration in test [2] and in test [3] were 0.01 to 0.1 µg/mL and 0.1 to 1 µg/mL, respectively.

Take `Nc1ncccc1-c1cc(Cc2ccnc(OCc3cccc(F)c3)c2)no1` [compound 86, 3-(3-((2-((3-fluorobenzyl)oxy)pyridin-4-yl)methyl)isoxazol-5-yl)pyridin-2-amine]: the MIC in test [1] lay in the range of 0.01 to 0.1 µg/mL (≈ 0.0266 to 0.266 µM). The minimal effective concentration is 0.01 to 0.1 µg/mL in test [2] and over 1 µg/mL in test [3].

Molecule `Nc1ncccc1-c1cc(Cc2ccc(OCc3cc(F)cc(Cl)c3)nc2)no1` [compound 87, 3-(3-((6-((3-chloro-5-fluorobenzyl)oxy)pyridin-3-yl)methyl)isoxazol-5-yl)pyridin-2-amine] registered an MIC in test [1] of 0.1 to 1 µg/mL (≈ 0.243 to 2.43 µM). Also, the minimal effective concentration in test [2] was 0.01 to 0.1 µg/mL; in test [3], over 1 µg/mL.

In turn, `Nc1ncccc1-c1cc(Cc2ccnc(Oc3ccccc3)c2)no1` [compound 88] yielded an MIC in test [1] of 0.1 to 1 µg/mL (≈ 0.29 to 2.9 µM). In addition, the minimal effective concentration in test [2] is 0.1 to 1 µg/mL; in test [3], over 1 µg/mL.

The molecule `Nc1ncccc1-c1cc(Cc2cccc(OCc3cccc(F)c3)n2)no1` [compound 89, 3-(3-((6-((3-fluorobenzyl)oxy)pyridin-2-yl)methyl)isoxazol-5-yl)pyridin-2-amine] showed an MIC in test [1] of over 1 µg/mL. Further, the minimal effective concentration in test [2] and in test [3] was over 1 µg/mL in each case.

As for `Nc1ncccc1-c1cc(Cc2cccc(OCc3ccccc3F)n2)no1` [compound 90, 3-(3-((6-((2-fluorobenzyl)oxy)pyridin-2-yl)methyl)isoxazol-5-yl)pyridin-2-amine], in test [1], the MIC is 0.1 to 1 µg/mL (≈ 0.266 to 2.66 µM). The minimal effective concentration in test [2] and in test [3] was over 1 µg/mL throughout.

Consider `Nc1ncccc1-c1cc(Cc2ccc(CNCc3ccn[nH]3)cc2)no1` [compound 93, 3-(3-(4-((((1H-pyrazol-5-yl)methyl)amino)methyl)benzyl)isoxazol-5-yl)pyridin-2-amine], for which, in test [1], the MIC was over 1 µg/mL. The minimal effective concentration in test [2] and in test [3] was over 1 µg/mL throughout.

As to `N#CCNCc1ccc(Cc2cc(-c3cccnc3N)on2)cc1` [compound 94, 2-((4-((5-(2-aminopyridin-3-yl)isoxazol-3-yl)methyl)benzyl)amino)acetonitrile], in test [1], the MIC is over 1 µg/mL. Moreover, the minimal effective concentration in test [2] and in test [3] was over 1 µg/mL in each case.

In test [1], `Nc1ncccc1-c1cc(Cc2ccc(CNCC3CCOCC3)cc2)no1` [compound 95, 3-(3-(4-((((tetrahydro-2H-pyran-4-yl)methyl)amino)methyl)benzyl)isoxazol-5-yl)pyridin-2-amine] gave an MIC of over 1 µg/mL. For the same molecule, the minimal effective concentration in test [2] and in test [3] was over 1 µg/mL each time.

In test [1], `Nc1ncccc1-c1cc(Cc2ccc(CNC3CCCCNC3=O)cc2)no1` (stereo not drawn) [compound 96, 3-((4-((5-(2-aminopyridin-3-yl)isoxazol-3-yl)methyl)benzyl)amino)azepan-2-one] displayed an MIC of over 1 µg/mL. Besides, the minimal effective concentration in test [2] and in test [3] was over 1 µg/mL in each case.

`C=Cc1ccc(Cc2cc(-c3cccnc3N)on2)cc1` [compound 97, 3-(3-(4-Vinylbenzyl)isoxazol-5-yl)pyridin-2-amine] showed a minimum inhibitory concentration (MIC) in test [1] of over 1 µg/mL. The minimal effective concentration is 0.1 to 1 µg/mL in test [2] and over 1 µg/mL in test [3].

Regarding `Nc1ncccc1-c1cc(Cc2ccc(CCSCCOC=O)cc2)no1` [compound 98, 2-((4-((5-(2-aminopyridin-3-yl)isoxazol-3-yl)methyl)phenethyl)thio)ethyl formate], the MIC in test [1] was 0.1 to 1 µg/mL. For the same molecule, the minimal effective concentration in test [2] was 0.1 to 1 µg/mL; in test [3] it was over 1 µg/mL.

In test [1], `Nc1ncccc1-c1cc(Cc2ccc(Cn3cc(CO)cn3)cc2)no1` [compound 102, (1-(4-((5-(2-aminopyridin-3-yl)isoxazol-3-yl)methyl)benzyl)-1H-pyrazol-4-yl)methanol] displayed an MIC of over 1 µg/mL. Further, the minimal effective concentration in test [2] and in test [3] was over 1 µg/mL throughout.

With `CCCc1cccc(OCc2ccc(Cc3cc(-c4cccnc4N)on3)cc2)c1` [compound 103, 3-(3-(4-((3-propylphenoxy)methyl)benzyl)isoxazol-5-yl)pyridin-2-amine], the MIC in test [1] is 0.1 to 1 µg/mL (≈ 0.25 to 2.5 µM). The minimal effective concentration was 0.1 to 1 µg/mL in test [2] and over 1 µg/mL in test [3].

Take `COc1ccc(COc2ccc(Cc3cc(-c4cccnc4N)on3)cc2)cc1` [compound 109, 3-(3-(4-((4-methoxybenzyl)oxy)benzyl)isoxazol-5-yl)pyridin-2-amine]: the MIC in test [1] was over 1 µg/mL. The minimal effective concentration in test [2] and in test [3] was over 1 µg/mL each time.

The record behind these values is patent US11512079B2, “Heterocycle substituted pyridine derivative antifungal agents” (Amplyx Pharmaceuticals, Inc., priority 2017, dated 2022).
